“And” between values parts separate entries of the source, which are not always exact repeats. Equal values may be shown once.
Experiment: Necropsy observations and organ weights, day 15
Assay type: in vivo, Sprague-Dawley rats
Conditions: for Tissue Collection Weights: Brain / Tissue Collection Weights: Heart / Tissue Collection Weights: Kidneys / Tissue Collection Weights: Liver / Tissue Collection Weights: Lungs / Tissue Collection Weights: Ovaries/uterus / Tissue Collection Weights: Small intestine / Tissue Collection Weights: Spleen / Tissue Collection Weights: Thymus / Tissue Collection Weights: Prostate / Tissue Collection Weights: Testes: individual animals; for Organ Weight Brain, Mean / Organ Weight Heart, Mean / Organ Weight Kidneys, Mean / Organ Weight Liver, Mean / Organ Weight Lungs, Mean / Organ Weight Prostate, Mean / Organ Weight Small intestine, Mean / Organ Weight Spleen, Mean / Organ Weight Testes, Mean / Organ Weight Thymus, Mean: male rats
Description: Body weight and food consumption was measured daily for 14 days. On day 15, urine was collected on all surviving animals. The animals were euthanized and bled via cardiac puncture, and blood was collected for analysis. Tissues were collected, weighed, evaluated for gross abnormalities, and stored in 10% neutral-buffered formalin.
On day 15, urine was collected on all surviving animals for urinalysis. The animals were euthanized and bled via cardiac puncture. Blood was collected for hematology, clinical chemistry, and coagulation analysis. Tissues were collected, weighed, and stored in 10% neutral-buffered formalin for possible future analysis.

[1] = Group B, 0.1 mg/kg, females, 0.1 mg/kg
[2] = Group B, 0.1 mg/kg, males, 0.1 mg/kg
[3] = Group C, 0.75 mg/kg, females, 0.75 mg/kg
[4] = Group C, 0.75 mg/kg, males, 0.75 mg/kg
[5] = anatabine 0.1 mg/kg single i.v.
[6] = anatabine 0.75 mg/kg single i.v.

C1=CCC(c2cccnc2)NC1 (racemic) [Anatabine, 1,2,3,6-tetrahydro-[2,3′]bipyridinyl]
Tissue Collection Weights: Brain [1]: 1.91 g and 1.89 g (2×) and 1.75 g and 1.86 g
Tissue Collection Weights: Heart [1]: 1.29 g and 1.12 g and 0.95 g and 1.05 g and 1.25 g
Tissue Collection Weights: Kidneys [1]: 2.46 g and 2.02 g (2×) and 2.14 g and 2.25 g
Tissue Collection Weights: Liver [1]: 11.54 g and 10.09 g and 9.94 g and 12.94 g and 9.67 g
Tissue Collection Weights: Lungs [1]: 1.42 g and 1.39 g and 1.15 g and 1.52 g and 1.59 g
Tissue Collection Weights: Ovaries/uterus [1]: 0.96 g and 1.79 g and 0.84 g and 1.42 g and 0.70 g
Tissue Collection Weights: Small intestine [1]: 0.87 g and 0.71 g and 0.55 g and 0.49 g and 0.63 g
Tissue Collection Weights: Spleen [1]: 0.79 g and 0.62 g and 0.51 g and 0.67 g and 0.65 g
Tissue Collection Weights: Thymus [1]: 0.68 g and 0.59 g and 0.49 g and 0.71 g and 0.73 g
Tissue Collection Weights: Brain [2]: 2.35 g and 2.16 g and 2.24 g and 2.11 g and 1.88 g
Tissue Collection Weights: Heart [2]: 1.71 g and 1.59 g and 1.97 g and 1.60 g and 1.85 g
Tissue Collection Weights: Kidneys [2]: 3.55 g and 3.33 g and 3.70 g and 3.27 g and 3.99 g
Tissue Collection Weights: Liver [2]: 17.92 g and 15.45 g and 16.98 g and 16.32 g and 17.38 g
Tissue Collection Weights: Lungs [2]: 2.31 g and 1.77 g and 2.08 g and 1.91 g and 1.83 g
Tissue Collection Weights: Prostate [2]: 0.72 g and 0.49 g and 0.73 g and 0.53 g and 0.48 g
Tissue Collection Weights: Small intestine [2]: 0.61 g and 0.96 g and 0.88 g and 0.50 g and 0.35 g
Tissue Collection Weights: Spleen [2]: 0.91 g and 0.66 g and 0.82 g and 0.93 g and 0.76 g
Tissue Collection Weights: Testes [2]: 3.69 g and 3.64 g and 3.14 g and 3.35 g and 3.29 g
Tissue Collection Weights: Thymus [2]: 0.74 g (2×) and 0.76 g and 0.71 g and 0.81 g
Tissue Collection Weights: Brain [3]: 1.99 g and 1.93 g and 1.73 g and 2.06 g and 1.81 g
Tissue Collection Weights: Heart [3]: 1.09 g and 1.21 g and 1.23 g and 1.03 g and 0.99 g
Tissue Collection Weights: Kidneys [3]: 2.08 g and 2.20 g and 2.68 g and 2.36 g
Tissue Collection Weights: Liver [3]: 10.71 g and 8.65 g and 11.37 g and 10.19 g
Tissue Collection Weights: Lungs [3]: 1.46 g and 1.39 g and 1.62 g and 1.30 g and 1.49 g
Tissue Collection Weights: Ovaries/uterus [3]: 0.81 g and 1.50 g and 0.72 g and 1.23 g and 3.65 g
Tissue Collection Weights: Small intestine [3]: 0.72 g and 0.37 g and 0.85 g and 0.47 g and 1.34 g
Tissue Collection Weights: Spleen [3]: 0.70 g and 0.65 g (2×) and 0.51 g and 0.49 g
Tissue Collection Weights: Thymus [3]: 0.56 g and 0.53 g and 0.63 g and 0.52 g and 0.54 g
Tissue Collection Weights: Brain [4]: 2.01 g and 2.19 g and 2.12 g and 2.00 g and 2.02 g
Tissue Collection Weights: Heart [4]: 1.52 g and 1.38 g and 1.56 g and 1.39 g and 1.29 g
Tissue Collection Weights: Kidneys [4]: 3.45 g and 2.77 g and 3.49 g and 3.16 g and 2.89 g
Tissue Collection Weights: Liver [4]: 14.92 g and 13.91 g and 14.70 g and 14.01 g and 14.94 g
Tissue Collection Weights: Lungs [4]: 1.86 g and 1.97 g and 1.72 g and 1.95 g and 1.58 g
Tissue Collection Weights: Prostate [4]: 0.49 g (2×) and 0.65 g and 0.46 g and 0.45 g
Tissue Collection Weights: Small intestine [4]: 0.54 g and 1.41 g and 0.56 g and 0.41 g and 0.47 g
Tissue Collection Weights: Spleen [4]: 0.71 g and 0.63 g and 0.79 g and 0.93 g and 0.64 g
Tissue Collection Weights: Testes [4]: 3.19 g and 3.84 g and 3.03 g and 3.28 g and 2.70 g
Tissue Collection Weights: Thymus [4]: 1.02 g and 0.52 g and 0.67 g and 0.69 g and 0.47 g
Organ Weight Brain, Mean [5]: 2.15 g
Organ Weight Heart, Mean [5]: 1.74 g
Organ Weight Kidneys, Mean [5]: 3.57 g
Organ Weight Liver, Mean [5]: 16.81 g
Organ Weight Lungs, Mean [5]: 1.98 g
Organ Weight Prostate, Mean [5]: 0.59 g
Organ Weight Small intestine, Mean [5]: 0.66 g
Organ Weight Spleen, Mean [5]: 0.82 g
Organ Weight Testes, Mean [5]: 3.42 g
Organ Weight Thymus, Mean [5]: 0.75 g
Organ Weight Brain, Mean [6]: 2.07 g
Organ Weight Heart, Mean [6]: 1.43 g
Organ Weight Kidneys, Mean [6]: 3.15 g
Organ Weight Liver, Mean [6]: 14.50 g
Organ Weight Lungs, Mean [6]: 1.82 g
Organ Weight Prostate, Mean [6]: 0.51 g
Organ Weight Small intestine, Mean [6]: 0.68 g
Organ Weight Spleen, Mean [6]: 0.74 g
Organ Weight Testes, Mean [6]: 3.21 g
Organ Weight Thymus, Mean [6]: 0.67 g
